Laboratory results published in patent EP2292225A1 (priority 1997, dated 1998).
Entries after “also recorded” stand apart in the source; their conditions may differ. Read-outs that look alike come from different tables or passages of the source.

Experiments:
[1] = tested on: balloon traumatized rabbit carotid artery; type: in vivo
[2] = tested on: Vascular smooth muscle cells; settings: 1 µg/ml; an anti-migration/contraction effective dose
swine coronary arteries [3] = test: Swine Coronary Artery Study: MIC catheter infusion after embolectomy or over-sized PTCA balloon trauma, morphometry at 4 weeks; type: in vivo
Procedure: Swine coronary arteries were also traumatized by embolectomy or over-sized PTCA balloon, and then 8-16 ml of cytochalasin B at 8.0 µg/ml was infused into the arterial wall with a MIC catheter to achieve a therapeutic dose. Controls included a diluent control and a traumatized untreated control, and all animals were sacrificed 4 weeks after intervention and coronary arteries were fixed by perfusion. Morphometry was performed on selected sections from proximal, treated and distal segments of coronary arteries (Table 15).
The diameter of, or the area within, the EEL of the artery can be compared to controls as an indicator of the degree of vascular remodeling. The lack of a statistically significant increase in luminal area may be due to increased sample variablility, increased neointimal formation, and/or increased degree of trauma.

[4] = 7 day intravenous toxicity study; type: in vivo, rats; settings: 10 µg/ml four times a day for 7 days (800 µg/kg daily)
Procedure: To determine the metabolism of ^3H-cytochalasin B in human blood, ^3H-cytochalasin B (8 µg/ml) was dissolved in saline; 1:1 dilution of saline and human plasma; or 1:1 dilution of saline and human whole blood. […] Toxicity Studies. To determine the toxicity of cytochalasin B, rats (4 male and 4 female) were injected with 10 µg/ml cytochalasin B four times a day for 7 days (Table 11). Data regarding body weight changes, food consumption, food efficiency, hematology parameters, coagulation parameters, serum chemistry parameters, and gross necropsy findings were collected. […] There were no gross or microscopic changes detected in the heart to account for the elevation. Thus, daily administration of cytochalasin B to rats at a dose of 800 µg/kg (for a total injected dose of 5600 µg/kg) may have an effect on heart weight of female (but not male) rats. However, clotted blood was not routinely removed from the heart lumens prior to weighing the heart.

[5] = mouse, in vivo
swine coronary arteries [6] = test: Dose-response study of balloon traumatized coronary arteries (morphometry); type: in vivo
[7] = tested on: Vascular smooth muscle (BO54) cells; type: cell-based, baboon
[8] = tested on: Vascular smooth muscle cells (BO54); test: Scratch assay of smooth muscle cell migration; type: cell-based, baboon; parameters: key: - = no migration; +1 = minimal; +2 = mild; +3 = moderate; +4 = marked (maximum density; limit of cell contact inhibition) migration; settings: for Migration Grade in an Undisturbed Region of the Well / Migration Grade in the Cleared Area of the Well: Day 1/3/6/8/10 = r5/r7/r9/r11/r13; for morphological Toxicity Grade: Day 1/3/6/8/10 = r6/r8/r10/r12/r14, listed as CY[…]
Procedure: Scratch assays to determine the extent of smooth muscle cell migration inhibition by cytochalasin B were performed in accordance with the following protocol: • Vascular smooth muscle cells (BO54) were derived from explants of baboon aortic smooth muscle, as described in Example 10. The cells were grown in flat bottom, six well tissue culture plates, which hold about 5 ml of medium. The vascular smooth muscle cells were plated at 200,000 cells/well and placed at 37°C in a humidified 5% CO2 incubator for 18 hours. The wells were then scratched with a sterile portion of a single edge razor blade that was held by clamp or pliers and was brought aseptically into contact with the bottom of the well at a 90° angle. The cells from a small area along the scratch were removed by a sterile cotton tipped applicator while the blade was in contact with the bottom of the well. After incubation, the presence of cells in the "scratched" area is indicative of cell migration across the scratch line.
Briefly, a stock solution of cytochalasin B (Sigma Chemical Co.) in dimethyl sulfoxide (DMSO) at 1 mg/ml was prepared. Test dilutions of cytochalasin B or control medium were added. Each experiment included two sets of plates: A set: Test agent exposure for 1, 3, 6, 8 and 10 days only; and B set: Test agent exposure for 1, 3, 6, 8 and 10 days, followed by a seven day recovery time with control medium. Both sets of plates were fixed (10% formalin in PBS) and stained (0.02% crystal violet) at the end of the timed exposures. Test concentrations for cytochalasin B were 1, 0.1 and 0.01 µg/ml, and a negative medium control was included. Fresh medium and drug were supplied 3 times per week.
In this Table, "M" indicates Migration Grade, wherein - = no migration; +1 = minimal; +2 = mild; +3 = moderate; and +4 = marked (maximum density; limit of cell contact inhibition) migration of vascular smooth muscle cells into the cleared area adjacent to the scratch. In this Table, "T" denotes a morphological Toxicity Grade, wherein - = no toxicity; +1 = minimal; +2 = mild; +3 = moderate; and +4 = marked toxicity. The migration results are expressed as "Grade in the Cleared Area of the Well / Grade in an Undisturbed Region of the Well." The toxicity values represent a grade for all cells in each well.

[9] = Group 7a: 10% wt/wt, three weeks
[10] = 8.0 µg/ml infused with MIC catheter after embolectomy or over-sized PTCA balloon trauma, sacrificed 4 weeks after intervention, mean
[11] = 8-16 ml at 8.0 µg/ml, 4 weeks after intervention
[12] = 7-day Recovery Post Exposure, 1.0 µg/mL

Structure (SMILES): C=C1[C@@H](C)[C@H]2[C@H](Cc3ccccc3)NC(=O)[C@]23OC(=O)/C=C/[C@H](O)CCC[C@@H](C)C/C=C/[C@H]3[C@@H]1O [cytochalasin B]
- intimal proliferation ([1]; Group 1: 20 mg in 1 g bovine collagen gel, bovine collagen mesh wrap, 1 week): no intimal or adventital proliferation
- intimal proliferation ([1]; Group 1: 20 mg in 1 g bovine collagen gel, bovine collagen mesh wrap, 2 weeks): minimal intimal and adventital proliferation
- intimal proliferation ([1]; Group 1: 20 mg in 1 g bovine collagen gel, bovine collagen mesh wrap, three weeks): no intimal proliferation
- intimal proliferation ([1]; Group 2: 30% wt/wt in silicone wrap, 3 weeks): moderate, irregular intimal proliferation
- intimal proliferation ([1]; Group 2: 30% wt/wt in silicone wrap, one week): no significant intimal or adventitial proliferation
- intimal proliferation ([1]; Group 2: 30% wt/wt in silicone wrap, two weeks): complete inhibition of intimal proliferation
- intimal proliferation ([1]; Group 3: 8 mg in 100 mg pluronic gel, bovine collagen mesh wrap, one week): mild intimal proliferation
- intimal proliferation ([1]; Group 3: 8 mg in 100 mg pluronic gel, bovine collagen mesh wrap, three weeks): moderate amount of intimal hyperplasia
- intimal proliferation ([1]; Group 3: 8 mg in 100 mg pluronic gel, bovine collagen mesh wrap, two weeks): mild, irregular intimal proliferation
- re-endothelization ([1]; Group 3: 8 mg in 100 mg pluronic gel, one week): approximately 30%
- intimal proliferation ([1]; Group 4: 100 mg (10% wt/wt) in 1 g silicone wrap, one week): no intimal proliferation
- intimal proliferation ([1]; Group 4: 100 mg (10% wt/wt) in 1 g silicone wrap, three weeks): minimal to no intimal proliferation
- intimal proliferation ([1]; Group 4: 100 mg (10% wt/wt) in 1 g silicone wrap, two weeks): minimal intimal proliferation
- re-endothelization ([1]; Group 4: 10% wt/wt silicone wrap, three weeks): < 10%
- intimal proliferation ([1]; Group 7a: 10% wt/wt, one and two weeks): no intimal proliferation for 2 weeks
- intimal proliferation [1, 9]: mild irregular intimal proliferation
- re-endothelized [1, 9]: 70%
- intimal proliferation ([1]; Group 8a: 10% wrap for 2 weeks, removed, evaluated 2 weeks later, animals 1254, 1255, 1256): none to mild; also recorded: mild to moderate intimal proliferation
- intimal proliferation ([1]; Group 10: 10 mg in 1 g silicone wrap (1% wt/wt) for 2 weeks, removed, 2 weeks later, animal 1304): moderate initmal proliferation
- re-endothelization ([1]; Group 10: 1% wrap for 2 weeks, removed, 2 weeks later, animal 1304): 100%
- re-endothelized ([1]; Group 11: 1% wrap for 2 weeks, removed, four weeks later, animal 1308): 100%
- intimal proliferation ([1]; Group 11: 1% wrap for 2 weeks, removed, four weeks later, animals 1307, 1308, 1309): moderate initmal proliferation; also recorded: moderate intimal proliferation; also recorded: marked intimal proliferation
- qualitative difference between test and control animals ([1]; Groups 10 and 11: 1% wt/wt silicone wrap for 2 weeks, removed, 2 or 4 weeks later): No significant difference
- cytotoxicity grade [2]: 1
- Neointimal Area (swine coronary arteries [3]; [10]): 1.56
- luminal area (swine coronary arteries [3]; [10]): 0.58
- arterial area bounded by the external elastic lamina (swine coronary arteries [3]; [11]): trend toward beneficial arterial remodeling
- luminal area (swine coronary arteries [3]; [11]): did not result in a statistically significant increase in luminal area
- Arterial Area (swine coronary arteries [3]; area bounded by external elastic lamina, 8.0 µg/ml infused with MIC catheter, sacrificed 4 weeks after intervention, mean): 1.80
- only parameter which suggested an adverse effect [4]: elevation of the mean relative heart weight in treated female animals
- levels in tissues [5]: very low levels
- maximal recovery from tissue extracts ([5]; iv, 3.5 mg/kg): 32%
- Mean % Lumen Area (swine coronary arteries [6]; 0.1 µg/mL, 4 Days Post Surgery): 97.0%
- Mean % Lumen Area (swine coronary arteries [6]; 1.5 µg/mL, 4 Days Post Surgery): 101.7%
- Mean % Lumen Area (swine coronary arteries [6]; 1.5 µg/mL, 21 Days Post Surgery): 100.9%
- Mean % Lumen Area (swine coronary arteries [6]; 10µg/mL, 4 Days Post Surgery): 103.9%
- Mean % Lumen Area (swine coronary arteries [6]; 10 µg/mL, 21 Days Post Surgery): 110.9%
- myocardial or arterial lesions (histology) (swine coronary arteries [6]; 0.1, 1.5 or 10.0 µg/ml): did not result in myocardial or arterial lesions
- Mean % Lumen Area (swine coronary arteries [6]; 0.1 µ/mL, 21 Days Post Surgery): 98.0%
- minimum effective dose (MED), protein synthesis assay ([7]; 5 minute exposure): 10 µg/mL
- minimum effective dose (MED), protein synthesis assay ([7]; 24 hour exposure): 1.0 µg/mL
- Migration Grade in an Undisturbed Region of the Well [8, 12]: +3
- Migration Grade in the Cleared Area of the Well [8, 12]: +2
- morphological Toxicity Grade ([8]; Continuous Exposure, 0.1 µg/mL): +1
- Migration Grade in an Undisturbed Region of the Well ([8]; Continuous Exposure, 1.0 µg/mL): +2
- Migration Grade in the Cleared Area of the Well ([8]; Continuous Exposure, 1.0 µg/mL): -
- morphological Toxicity Grade ([8]; Continuous Exposure, 1.0 µg/mL): +3
